The values below come from US20210002182A1, “NOVEL PHOSPHATIC FERTILIZERS BASED ON ALKANOLAMINE SALTS OF PHOSPHORIC ACID” (Yara UK Limited, priority 2017, published 2021).

The test system of one data set is radish test crop. The data set can be described thus: Glasshouse crop safety trial, foliar spraying. The note with it: foliar spraying at 5 leaf stage, 3.4 kg P2O5 per ha in 200 litres/ha water, assessed seven days after spraying. The format is in vivo. The protocol:
Glasshouse trials were carried out in order to assess crop safety of the composition described above. The trials were carried out using a radish test crop grown in pots in a sand medium and fed via a nutrient solution. A randomised block design using 4 replicates was employed. The product was applied by foliar spraying at the 5 leaf growth stage using a rate equivalent to 10 kg/ha in 200 litres/ha water (equating to an input of 3.4 kg P2O5 per ha). […] The crop was assessed for symptoms of phytotoxicity seven days after spraying.

For data set [1] the following is noted: 75 weight % phosphoric acid; cited from earlier work.

`O=P(O)(O)O` [phosphoric acid]: the “Symptoms of phytotoxicity (crop damage)” value in the data set on radish test crop is recorded as “signs of crop damage (leaf burn)”. Moreover, the Freezing point in data set [1] was −20 °C.
